In patent publication US9073830B2 (Hyundai Pharm Co., Ltd., priority 2011, dated 2015):

Legend:
[1] = molecular target: T1, human 11β-HSD1 (Homo sapiens, UniProt P28845); test: Enzyme activity analysis on human 11β-HSD1 (HTRF cortisol, liver microsomes); format: biochemical; details: first value of cell
T1 construct: 100 ug/ml human/mouse liver microsomes; from tissue; host or cells: human liver microsomes
Protocol: (§1) After culturing at 37° C. for 2 hours, 5 μl of cryptate-labeled anti-cortisol antibody and 5 μl of d2-labeled cortisol were added thereto. After further culturing at room temperature for 2 hours, a homogeneous time-resolved fluorescence (HTRF, Cisbio) signal was measured. From each analysis, based on a standard curve calculated using cortisols of several known concentrations, an amount of produced cortisol was tested.
(§2) While an amount of cortisol, produced without the compound, was used as a control, an inhibition percentage by the test compound, at each concentration, was calculated. By using an inhibition curve calculated by coordinates of inhibition percentage to test compound concentration, an IC50 value of the compound on 11β-HSD1 was obtained.

[2] = molecular target: T2, mouse 11β-HSD1 (Mus musculus, UniProt P50172); test: Enzyme activity analysis on mouse 11β-HSD1 (HTRF cortisol, liver microsomes); format: biochemical; details: second value of cell
T2 construct: 100 ug/ml human/mouse liver microsomes; from tissue; host or cells: mouse liver microsomes
Protocol: as §1, §2

T2 sequence (P50172 whole entry): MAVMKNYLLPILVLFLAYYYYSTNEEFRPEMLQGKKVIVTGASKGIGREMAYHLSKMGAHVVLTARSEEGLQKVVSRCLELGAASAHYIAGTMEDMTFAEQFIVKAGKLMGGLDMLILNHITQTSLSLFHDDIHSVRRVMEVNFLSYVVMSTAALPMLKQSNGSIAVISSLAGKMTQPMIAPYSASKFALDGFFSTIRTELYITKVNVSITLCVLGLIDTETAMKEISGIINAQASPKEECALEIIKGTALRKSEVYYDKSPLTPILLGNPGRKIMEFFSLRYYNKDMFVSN
T1 sequence (P28845 whole entry): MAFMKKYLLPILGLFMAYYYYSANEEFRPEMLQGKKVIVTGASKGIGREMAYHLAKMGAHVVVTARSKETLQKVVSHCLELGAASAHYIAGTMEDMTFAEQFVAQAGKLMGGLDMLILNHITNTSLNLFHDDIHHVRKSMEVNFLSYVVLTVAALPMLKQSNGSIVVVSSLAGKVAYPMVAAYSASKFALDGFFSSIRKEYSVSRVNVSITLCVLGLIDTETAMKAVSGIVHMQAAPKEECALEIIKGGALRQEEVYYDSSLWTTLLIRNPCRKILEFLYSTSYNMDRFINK

Row | IC50 [1] | IC50 [2] | Structure (SMILES)
1 | 0.04 µM | 0.19 µM | CC(C)(NS(=O)(=O)c1ccccc1)C(=O)NC1C2CC3CC(C2)CC1C3 (stereo not shown) [compound 1, N-(adamantane-2-yl)-2-methyl-2-(phenylsulfonamido)propanamide]
2 | 0.1 µM | 0.888 µM | CC(C)(NS(=O)(=O)c1ccc(F)cc1)C(=O)NC1C2CC3CC(C2)CC1C3 (stereo not shown) [compound 2, N-(adamantane-2-yl)-2-methyl-2-(4-fluorophenylsulfonamido)propanamide]
3 | 1.33 µM | 1.7 µM | CC(C)(NS(=O)(=O)c1ccc([N+](=O)[O-])cc1)C(=O)NC1C2CC3CC(C2)CC1C3 (stereo not shown) [compound 3, N-(adamantane-2-yl)-2-methyl-2-(4-nitrophenylsulfonamido)propanamide]
4 | 1.32 µM | 1.68 µM | CC(C)(NS(=O)(=O)c1ccc(OC(F)(F)F)cc1)C(=O)NC1C2CC3CC(C2)CC1C3 (stereo not shown) [compound 4, N-(adamantane-2-yl)-2-methyl-2-(4-(trifluoromethoxy)phenylsulfonamido)propanamide]
5 | 0.43 µM | 1.05 µM | CC(C)(NS(=O)(=O)c1ccc(Cl)cc1)C(=O)NC1C2CC3CC(C2)CC1C3 (stereo not shown) [compound 5, N-(adamantane-2-yl)-2-methyl-2-(4-chlorophenylsulfonamido)propanamide]
6 | 0.02 µM | 0.04 µM | CC(C)(NS(=O)(=O)c1ccccc1Cl)C(=O)NC1C2CC3CC(C2)CC1C3 (stereo not shown) [compound 6, N-(adamantane-2-yl)-2-methyl-2-(2-chlorophenylsulfonamido)propanamide]
7 | 0.08 µM | 0.33 µM | Cc1c(Cl)cccc1S(=O)(=O)NC(C)(C)C(=O)NC1C2CC3CC(C2)CC1C3 (stereo not shown) [compound 7, N-(adamantane-2-yl)-2-methyl-2-(3-chloro-2methylphenylsulfonamido)propanamide]
8 | 0.052 µM | 0.264 µM | CC(C)(NS(=O)(=O)c1cccc(Cl)c1Cl)C(=O)NC1C2CC3CC(C2)CC1C3 (stereo not shown) [compound 8, N-(adamantane-2-yl)-2-methyl-2-(2,3-dichlorophenylsulfonamido)propanamide]
9 | 0.091 µM | > 2.5 µM | CC(C)(NS(=O)(=O)c1cc(Cl)ccc1Cl)C(=O)NC1C2CC3CC(C2)CC1C3 (stereo not shown) [compound 9, N-(adamantane-2-yl)-2-methyl-2-(2,5-dichlorophenylsulfonamido)propanamide]
10 | 0.212 µM | 0.735 µM | CC(C)(NS(=O)(=O)c1cccc(Cl)c1)C(=O)NC1C2CC3CC(C2)CC1C3 (stereo not shown) [compound 10, N-(adamantane-2-yl)-2-methyl-2-(3-chlorophenylsulfonamido)propanamide]
11 | 0.35 µM | – | CC(C)(NS(=O)(=O)c1ccc(Cl)c(Cl)c1)C(=O)NC1C2CC3CC(C2)CC1C3 (stereo not shown) [compound 11, N-(adamantane-2-yl)-2-methyl-2-(3,4-dichlorophenylsulfonamido)propanamide]
12 | 0.02 µM | 0.051 µM | CC(C)(NS(=O)(=O)c1ccccc1Br)C(=O)NC1C2CC3CC(C2)CC1C3 (stereo not shown) [compound 12, N-(adamantane-2-yl)-2-methyl-2-(2-bromophenylsulfonamido)propanamide]
13 | 0.032 µM | 0.267 µM | CC(C)(NS(=O)(=O)c1ccccc1C(F)(F)F)C(=O)NC1C2CC3CC(C2)CC1C3 (stereo not shown) [compound 13, N-(adamantane-2-yl)-2-methyl-2-(2-trifluoromethylphenylsulfonamido)propanamide]
14 | 0.17 µM | – | CC(C)(NS(=O)(=O)c1c(Cl)cc(Cl)cc1Cl)C(=O)NC1C2CC3CC(C2)CC1C3 (stereo not shown) [compound 14, N-(adamantane-2-yl)-2-methyl-2-(2,4,6-trichlorophenylsulfonamido)propanamide]
15 | 0.036 µM | 0.313 µM | Cc1ccccc1S(=O)(=O)NC(C)(C)C(=O)NC1C2CC3CC(C2)CC1C3 (stereo not shown) [compound 15, N-(adamantane-2-yl)-2-methyl-2-(2-methylphenylsulfonamido)propanamide]
16 | 0.034 µM | 0.255 µM | CC(C)(NS(=O)(=O)c1ccccc1F)C(=O)NC1C2CC3CC(C2)CC1C3 (stereo not shown) [compound 16, N-(adamantane-2-yl)-2-methyl-2-(2-fluorophenylsulfonamido)propanamide]
17 | 0.008 µM | 0.008 µM | CC(C)(NS(=O)(=O)c1cccc2cccnc12)C(=O)NC1C2CC3CC(C2)CC1C3 (stereo not shown) [compound 17, N-(adamantane-2-yl)-2-methyl-2-(quinoline-8-sulfonamido)propanamide]
18 | 1.14 µM | – | CC(C)(NS(=O)(=O)c1ccc(C(C)(C)C)cc1)C(=O)NC1C2CC3CC(C2)CC1C3 (stereo not shown) [compound 18, N-(adamantane-2-yl)-2-methyl-2-(4-(t-butyl)phenylsulfonamido)propanamide]

Row | IC50 [1] | IC50 [2] | Structure (SMILES)
19 | 0.478 µM | – | CC(C)(NS(=O)(=O)c1cccc(C(F)(F)F)c1)C(=O)NC1C2CC3CC(C2)CC1C3 (stereo not shown) [compound 19, N-(adamantane-2-yl)-2-methyl-2-(3-trifluoromethylphenylsulfonamido)propanamide]
20 | 0.304 µM | – | CC(C)(NS(=O)(=O)c1cccc2ccccc12)C(=O)NC1C2CC3CC(C2)CC1C3 (stereo not shown) [compound 20, N-(adamantane-2-yl)-2-methyl-2-(naphthalene-1-sulfonamido)propanamide]
21 | 0.466 µM | – | CC(C)(NS(=O)(=O)c1ccc2ccccc2c1)C(=O)NC1C2CC3CC(C2)CC1C3 (stereo not shown) [compound 21, N-(adamantane-2-yl)-2-methyl-2-(naphthalene-2-sulfonamido)propanamide]
22 | 0.033 µM | 1.06 µM | CC(C)(NS(=O)(=O)Cc1ccccc1[N+](=O)[O-])C(=O)NC1C2CC3CC(C2)CC1C3 (stereo not shown) [compound 22, N-(adamantane-2-yl)-2-methyl-2-((2-nitrophenyl)methylsulfonamido)propanamide]
23 | 0.404 µM | – | COc1ccc(S(=O)(=O)NC(C)(C)C(=O)NC2C3CC4CC(C3)CC2C4)cc1 (stereo not shown) [compound 24, N-(adamantane-2-yl)-2-methyl-2-(4-methoxyphenylsulfonamido)propanamide]
24 | 0.045 µM | 0.42 µM | CC(C)(NS(=O)(=O)c1ccccc1OC(F)(F)F)C(=O)NC1C2CC3CC(C2)CC1C3 (stereo not shown) [compound 25, N-(adamantane-2-yl)-2-methyl-2-(2-(trifluoromethoxy)phenylsulfonamido)propanamide]
25 | 1.27 µM | > 2.5 µM | CC(C)(NS(=O)(=O)c1cc(Cl)cc(Cl)c1)C(=O)NC1C2CC3CC(C2)CC1C3 (stereo not shown) [compound 26, N-(adamantane-2-yl)-2-methyl-2-(3,5-dichlorophenylsulfonamido)propanamide]
26 | 0.555 µM | 1.12 µM | Cc1ccc(S(=O)(=O)NC(C)(C)C(=O)NC2C3CC4CC(C3)CC2C4)cc1F (stereo not shown) [compound 27, N-(adamantane-2-yl)-2-methyl-2-(4-methyl-3-fluorophenylsulfonamido)propanamide]
27 | 0.133 µM | 0.437 µM | Cc1cccc(S(=O)(=O)NC(C)(C)C(=O)NC2C3CC4CC(C3)CC2C4)c1 (stereo not shown) [compound 28, N-(adamantane-2-yl)-2-methyl-2-(3-methylphenylsulfonamido)propanamide]
28 | 0.216 µM | 0.329 µM | COc1cccc(S(=O)(=O)NC(C)(C)C(=O)NC2C3CC4CC(C3)CC2C4)c1 (stereo not shown) [compound 29, N-(adamantane-2-yl)-2-methyl-2-(3-methoxyphenylsulfonamido)propanamide]
29 | 0.192 µM | 0.462 µM | CC(C)(NS(=O)(=O)c1cccc(F)c1)C(=O)NC1C2CC3CC(C2)CC1C3 (stereo not shown) [compound 30, N-(adamantane-2-yl)-2-methyl-2-(3-fluorophenylsulfonamido)propanamide]
30 | 0.409 µM | 1.06 µM | CC(C)(NS(=O)(=O)c1ccc(Cl)cc1F)C(=O)NC1C2CC3CC(C2)CC1C3 (stereo not shown) [compound 31, N-(adamantane-2-yl)-2-methyl-2-(4-chloro-2-fluorophenylsulfonamido)propanamide]
31 | 0.051 µM | 0.583 µM | CC(C)(NS(=O)(=O)c1ccc(F)cc1C(F)(F)F)C(=O)NC1C2CC3CC(C2)CC1C3 (stereo not shown) [compound 32, N-(adamantane-2-yl)-2-methyl-2-(4-fluoro-2-trifluoromethylphenylsulfonamido)propanamide]
32 | 0.065 µM | 1.67 µM | CC(C)(NS(=O)(=O)Cc1ccc(Cl)cc1)C(=O)NC1C2CC3CC(C2)CC1C3 (stereo not shown) [compound 33, N-(adamantane-2-yl)-2-methyl-2-((4-chlorophenyl)methylsulfonamido)propanamide]
33 | 0.048 µM | 0.7 µM | CC(C)(NS(=O)(=O)Cc1ccccc1Cl)C(=O)NC1C2CC3CC(C2)CC1C3 (stereo not shown) [compound 34, N-(adamantane-2-yl)-2-methyl-2-((2-chlorophenyl)methylsulfonamido)propanamide]
34 | > 2.5 µM | > 2.5 µM | CC(C)(NS(=O)(=O)Cc1ccc(Cl)c(Cl)c1)C(=O)NC1C2CC3CC(C2)CC1C3 (stereo not shown) [compound 35, N-(adamantane-2-yl)-2-methyl-2-((3,4-dichlorophenyl)methylsulfonamido)propanamide]
35 | 0.04 µM | > 2.5 µM | CC(C)(NS(=O)(=O)Cc1ccc(C(F)(F)F)cc1)C(=O)NC1C2CC3CC(C2)CC1C3 (stereo not shown) [compound 36, N-(adamantane-2-yl)-2-methyl-2-((4-trifluoromethylphenyl)methylsulfonamido)propanamide]
36 | – | 0.015 µM | CN(C(C)(C)C(=O)NC1C2CC3CC1CC(C(N)=O)(C3)C2)S(=O)(=O)c1ccccc1F (stereo not shown) [compound 195, N-4-(2-(2-fluoro-N-methylphenylsulfonamido)-2-methylpropanamido)adamantane-1-carboxyamide]
